US20210147481A1, “PEPTIDE-BASED INHIBITORS OF MARK FAMILY PROTEINS” (Ohio Universtiy, priority 2017, published 2021)
Like-named read-outs stand apart in the source and are kept apart here. Peptide text beside a SMILES is read from it. * marks the point of attachment. 5FAM = O=C1OC2(c3ccc(O)cc3Oc3cc(O)ccc32)c2ccc(C(=O)*)cc21

How the values were obtained:
[1] = target: MARK2 (Homo sapiens, UniProt Q7KZI7); assay: Antibody-linked fluorescence polarization assay of tR1 phosphorylation by MARK2; assay type: biochemical; conditions: 10 μM FlutR1, MARK2, ATP, antibody versus absence of MARK2, ATP, or antibody
Chain of MARK2 (Homo sapiens, UniProt Q7KZI7) (Q7KZI7 whole entry): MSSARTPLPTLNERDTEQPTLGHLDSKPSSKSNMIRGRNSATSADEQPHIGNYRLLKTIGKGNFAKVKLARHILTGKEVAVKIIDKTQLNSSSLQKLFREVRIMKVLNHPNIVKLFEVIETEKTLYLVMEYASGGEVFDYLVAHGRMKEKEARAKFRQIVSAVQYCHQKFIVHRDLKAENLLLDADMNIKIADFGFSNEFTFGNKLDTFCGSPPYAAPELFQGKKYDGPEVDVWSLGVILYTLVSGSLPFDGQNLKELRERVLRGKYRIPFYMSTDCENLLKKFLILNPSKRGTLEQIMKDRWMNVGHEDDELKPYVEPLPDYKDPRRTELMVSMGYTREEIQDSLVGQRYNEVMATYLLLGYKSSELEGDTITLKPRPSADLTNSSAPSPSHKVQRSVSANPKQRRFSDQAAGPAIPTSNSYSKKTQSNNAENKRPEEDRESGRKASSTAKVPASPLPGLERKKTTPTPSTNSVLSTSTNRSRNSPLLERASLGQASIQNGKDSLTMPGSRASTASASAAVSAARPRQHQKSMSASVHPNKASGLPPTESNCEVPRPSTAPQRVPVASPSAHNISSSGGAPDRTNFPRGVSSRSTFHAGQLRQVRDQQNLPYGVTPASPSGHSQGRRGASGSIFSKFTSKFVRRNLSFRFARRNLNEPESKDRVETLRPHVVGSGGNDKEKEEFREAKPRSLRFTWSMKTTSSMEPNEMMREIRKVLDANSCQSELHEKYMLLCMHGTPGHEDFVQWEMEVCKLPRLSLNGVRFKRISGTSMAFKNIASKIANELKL
Description: The ability for MARK2 to phosphorylate tR1 in vitro was further validated by incubating ^FlutR1 peptides with MARK2 and ATP and monitoring the fluorescence polarization of the solution following addition of antibodies specific for hTau pSer262 (FIG. 6C). In these experiments, ^FlutR1 peptides and MARK2 were incubated with and without ATP for 60 minutes at 32° C. in phosphorylation buffer. Following incubation, antibodies specific for hTau pSer262 were added to the reaction and allowed to incubate for an additional 60 minutes at room temperature. Due to the slower tumbling rate of an antibody-linked (and presumably phosphorylated) ^FlutR1 peptide, it is believed that the fluorescence polarization of the phosphorylated tR1 peptide would be higher than that of its un-phosphorylated counterpart.
Analysis of the activity of MARK2 proteins was performed in 60-μL phosphorylation buffer (50 mM Tris-HCl, pH 8.0, 5 mM MgCl2, 2 mM EGTA, 0.5 mM DTT, 0.5 mM benzamidine HCl, 0.5 mM PMSF) containing 100 μM ATP, 10 μM of ^FlutR1, and 10 nM MARK2. The reaction mixture was incubated at 32° C. for 1 hour. […] Fluorescence polarization was then measured using a SpectraMax M5e multi-mode plate reader (Molecular Devices, Sunnyvale, Calif.) in 384-well plates (#3575, Corning, Corning, N.Y.). […]

[2] = system: rat primary cortical neurons
[3] = target: MARK2 (Rattus norvegicus, UniProt O08679); assay: Immunofluorescence of PAO-induced MARK2-mediated tau Ser262 phosphorylation in neurons; assay type: cell-based
Chain of MARK2 (Rattus norvegicus, UniProt O08679) (O08679 whole entry): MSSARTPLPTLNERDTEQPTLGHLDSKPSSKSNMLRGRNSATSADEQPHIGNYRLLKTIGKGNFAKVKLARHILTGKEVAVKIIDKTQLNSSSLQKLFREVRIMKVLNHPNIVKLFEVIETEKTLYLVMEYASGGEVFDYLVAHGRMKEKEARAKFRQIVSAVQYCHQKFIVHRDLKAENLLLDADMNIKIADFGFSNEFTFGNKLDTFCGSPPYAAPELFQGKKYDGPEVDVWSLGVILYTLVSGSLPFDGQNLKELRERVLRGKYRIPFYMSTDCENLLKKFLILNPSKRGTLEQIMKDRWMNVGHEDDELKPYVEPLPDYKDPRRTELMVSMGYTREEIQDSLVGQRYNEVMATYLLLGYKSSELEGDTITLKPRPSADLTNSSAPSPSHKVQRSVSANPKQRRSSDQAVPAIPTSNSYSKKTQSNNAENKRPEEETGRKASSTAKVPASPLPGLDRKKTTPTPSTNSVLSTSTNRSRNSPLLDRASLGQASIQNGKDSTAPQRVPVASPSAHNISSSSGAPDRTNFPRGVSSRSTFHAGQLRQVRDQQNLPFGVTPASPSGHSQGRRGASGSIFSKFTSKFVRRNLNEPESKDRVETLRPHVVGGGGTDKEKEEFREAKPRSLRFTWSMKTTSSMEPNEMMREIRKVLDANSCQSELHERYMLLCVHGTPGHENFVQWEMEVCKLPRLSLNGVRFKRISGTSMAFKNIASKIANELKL

CC[C@H](C)[C@H](NC(=O)[C@H](CCCCN)NC(=O)[C@H](CO)NC(=O)[C@H](CCCCN)NC(=O)[C@@H](NC(=O)[C@H](CC(N)=O)NC(=O)c1ccc2c(c1)C(=O)OC21c2ccc(O)cc2Oc2cc(O)ccc21)C(C)C)C(=O)NCC(=O)N[C@@H](CO)C(=O)N[C@H](C(=O)N[C@@H](CCC(=O)O)C(=O)N[C@@H](CC(N)=O)C(=O)N[C@@H](CC(C)C)C(=O)N[C@@H](CCCCN)C(N)=O)[C@@H](C)O [^FlutR1] (5FAM-NVKSKIGSTENLK-NH2)
fluorescence polarization after addition of hTau pSer262 antibody [1]: polarization to be highest in solutions containing all reaction components | intracellular uptake (fluorescence) ([2]; 10 μM FlutR1 alone, 4 hours): distinct fluorescent puncta within the cell body and neurites | intracellular distribution (fluorescence) ([2]; 10 μM FlutR1 with 50 nM Baf): no fluorescent puncta following treatment and diffuse green fluorescence within the cell soma | intracellular uptake (fluorescence) ([2]; 10 μM FlutR1 with 5 μM PAO): did not seem to affect the uptake | intracellular distribution (fluorescence) ([2]; 10 μM FlutR1 with 100 μM CLQ): significant loss of discrete fluorescent puncta | intracellular uptake (fluorescence) ([2]; 10 μM FlutR1 with 10 mM sodium azide): significant loss of fluorescent puncta within the cell body and neurites

CO/C1=C\C(C)=C\[C@@H](C)[C@@H](O)[C@@H](C)C/C(C)=C/C=C/[C@H](OC)[C@@H]([C@@H](C)[C@@H](O)[C@H](C)[C@@]2(O)C[C@@H](O)[C@H](C)[C@@H](C(C)C)O2)OC1=O [bafilomycin A1, reference compound]
effect of endosome disruptor alone on PAO-induced MARK2 mediated phosphorylation of tau ([3]; without tR1, 5 μM PAO): Neither bafilomycin A1 nor chloroquine treatments alone affected

CCN(CC)CCCC(C)Nc1ccnc2cc(Cl)ccc12 (centres unmarked) [chloroquine, reference compound]
effect of endosome disruptor alone on PAO-induced MARK2 mediated phosphorylation of tau [3]: Neither bafilomycin A1 nor chloroquine treatments alone affected
